Data taken from patent US11820833B2, “Peptides that inhibit binding of EPCR to its ligand to treat inflammation” (Tel HaShomer Medical Research Infrastructure and Services …, priority 2016, dated 2023).
“Also recorded” adds a separate entry of the source. Non-standard residues stand in square brackets, D forms with d. Residues, ends and D or L forms follow the SMILES beside them. *: point of attachment. Gla = N[C@@H](CC(C(=O)O)C(=O)O)C(=O)O; Tos = Cc1ccc(S(=O)(=O)*)cc1

Key:
[1] = test system: commercial human pool plasma; assay: Coagulation tests (PT, APTT, TT, anti Xa, aPC-resistance) in human pool plasma
Experimental: All coagulation tests as PT (Prothrombin Time), APTT (activated partial thromboplastin time), TT (Thrombin Time), anti Xa, aPC-resistance were carried out in collaboration with the routine coagulation lab in Sheba Medical Center and conducted on a commercial human pool plasma samples.
Coagulation tests were conducted at the Sheba Medical Center (as described in details in the ‘general materials and experimental procedures’ section above) and a commercial pool human plasma was used. PEP6 was applied in various concentrations for injection in vivo and for evaluating the safety and the width of the therapeutic window for treatment.

[2] = test system: Long Term Potentiation (LTP), hippocampal slices; assay: In vitro electrophysiology, Long Term Potentiation in hippocampal slices; set-up: species or system mice; conditions: peptides at 10 μM, HFS 100 Hz 1 second
Experimental: The efficacy of the peptides was tested using in vitro electrophysiology. Here the present inventors tested whether these peptides have similar effects as aPC in enhancing Long Term Potentiation. Briefly, mice (10-12 weeks of age) were rapidly decapitated, the hippocampus was removed, and 400 μm slices were prepared using a vibroslicer. Slices were incubated for 1.5 hours in a humidified, carbogenated (5% CO2 and 95% O2) gas atmosphere at 33±1° C. and were perfused with ACSF [containing (in mm) 124 NaCl, 2 KCl, 26 NaHCO3, 1.24 KH2PO4, 2.5 CaCl2, 2 MgSO4, and 10 glucose, pH 7.4] in a standard interface chamber. Recordings were made with a glass pipette containing 0.75 m NaCl (4 MΩ) placed in the stratum radiatum CA1.
Stimulation was evoked using a Master 8 pulse stimulator (A.M.P.I., Jerusalem, Israel) and was delivered through a bipolar nichrome electrode placed at a side of the recording electrode. LTP was induced by high-frequency stimulation (HFS) consisting of 100 pulses at twice the test intensity, delivered at a frequency of 100 Hz (100 Hz, 1 second). Before applying the tetanic stimulation, baseline values were recorded at a frequency of 0.033 Hz. Responses were digitized at 5 kHz and stored on a computer. Off-line analysis and data acquisition were performed using the LTP Program (Anderson and Collingridge, 2001). Peptides were tested at a concentration of 10 μM.

| Compound | Effect in APTT (activated partial thromboplastin time) test [1] | Effect in PT (Prothrombin Time) test [1] | Effect on coagulation tests (all conducted tests) ([1]; any concentration tested) | Effect on Long Term Potentiation (LTP) [2] |
| --- | --- | --- | --- | --- |
| Cc1ccc(S(=O)(=O)N[C@@H](CC(C(=O)O)C(=O)O)C(=O)N[C@@H](CCC(=O)O)C(=O)N[C@@H](C)C(=O)N[C@@H](CCCNC(=N)N)C(N)=O)cc1 [Pep6, Tos-{Gla}-EAR-NH2] (Tos-[Gla]EAR-NH2) | small but statistically significant effect | small but statistically significant effect | either no effect or clinical-irrelevant effect; also recorded: did not affect |  |
| Tos-{Gla}-EAK-NH2 (Tos-[Gla]EAK-NH2; SMILES Cc1ccc(S(=O)(=O)N[C@@H](CC(C(=O)O)C(=O)O)C(=O)N[C@@H](CCC(=O)O)C(=O)N[C@@H](C)C(=O)N[C@@H](CCCCN)C(N)=O)cc1) [Pep5, N-terminal Tosyl, C-terminal amide, γ-carboxylated Glu] |  |  |  | enhanced |
| Tos-{Gla}-EAK-{Gla}-IF-NH2 (Tos-[Gla]EAK[Gla]IF-NH2; SMILES CC[C@H](C)[C@H](NC(=O)[C@H](CC(C(=O)O)C(=O)O)NC(=O)[C@H](CCCCN)NC(=O)[C@H](C)NC(=O)[C@H](CCC(=O)O)NC(=O)[C@H](CC(C(=O)O)C(=O)O)NS(=O)(=O)c1ccc(C)cc1)C(=O)N[C@@H](Cc1ccccc1)C(N)=O) [Pep7, N-terminal Tosyl, C-terminal amide, γ-carboxylated Glu] |  |  |  | enhanced |
| Tos-{Gla}-EAR-{Gla}-IF-NH2 (Tos-[Gla]EAR[Gla]IF-NH2; SMILES CC[C@H](C)[C@H](NC(=O)[C@H](CC(C(=O)O)C(=O)O)NC(=O)[C@H](CCCNC(=N)N)NC(=O)[C@H](C)NC(=O)[C@H](CCC(=O)O)NC(=O)[C@H](CC(C(=O)O)C(=O)O)NS(=O)(=O)c1ccc(C)cc1)C(=O)N[C@@H](Cc1ccccc1)C(N)=O) [Pep8, N-terminal Tosyl, C-terminal amide, γ-carboxylated Glu] |  |  |  | enhanced |
